Assay results: US20240174665A1, “CDK2 INHIBITORS AND USES THEREOF” (Kymera Therapeutics, Inc., priority 2022, published 2024)

These molecules were tested against T1, CDK2/CycE1 (Homo sapiens, UniProt P24941) (assay: CDK2 inhibition assay, PhosphoSens CSox-based Kinetic Assay Format (AssayQuant)). Conditions: 1.5 nM CDK2/CycE1, 1.5× Km ATP, 30 minute preincubation at 30° C., reaction 240 minutes; read-out: IC50 CDK2-CycE1 (AssayQuant) Using PhosphoSens ® CSox-based Kinetic Assay Format.
T1 construct: 1.5 nM CDK2/CycE1, amino acids 1-298/1-410, Carna BS; purchased Carna BS (Carna Biosciences) 04-165, lot 20CBS-0731B
Type: biochemical
Experimental: Inhibition of CDK2 was measured using PhosphoSens® CSox-based Kinetic Assay Format (AssayQuant Technologies) as follows:
• 2.5 μl 10× Inhibitor in 10% DMSO (3-fold titration in 10% DMSO for a final DMSO concentration of 1%) • […] Reaction Mix with ATP, DTT, & CSx Substrate • 30 minute preincubation at 30° C. • […] Enzyme dilution buffer (EDB) (1×) or Kinase (5× in EDB); Enzyme Dilution Buffer (EDB): 20 mM HEPES, pH 7.5, 0.01% Brij-35, 0.1 mM EGTA, 5% Glycerol, 1.0 mg/ml BSA, 1.0 mM DTT • 25 μL Final reaction volume • Reaction was run at 30° C. for 240 minutes
• 54 mM HEPES, pH 7.5 • 1.5× Km ATP (see ATP TAB) • 1.2 mM DTT • 0.012% Brij-35 • 0.52 mM EGTA • 1% glycerol • 0.2 mg/ml BSA • 10 mM MgCl2 • 15 μM AQT0297
Reactions were run in Corning, low volume 384-well, white flat round bottom polystyrene NBS microplates (Cat. #3824) after sealing using optically-clear adhesive film (TopSealA-Plus plate seal, PerkinElmer [Cat. #6050185])
The letter codes for CDK2 inhibition include: A (<100 nM), B (≥100-500 nM), C (>500-1000 nM), and D (>1000 nM).

Row | IC50 [nM] | Compound
1 | < 100 | CCS(=O)(=O)c1ccc(Nc2ncc3cc(C(F)F)nc(N4CCCC4)c3n2)c(C)c1 [I-42]
2 | > 1000 | CCS(=O)(=O)c1ccc(Nc2ncc(C(F)(F)F)c([C@H]3CC[C@](C)(O)CC3)n2)c(C)c1 [I-43]
3 | < 100 | CNS(=O)(=O)c1ccc(Nc2ncc(C(F)(F)F)c([C@H]3CC[C@@](C)(O)CC3)n2)c(C)c1 [I-67]
4 | < 100 | CNS(=O)(=O)c1ccc(Nc2ncc(C(F)(F)F)c(-c3cn(C(C)C)c(C)n3)n2)c(C)c1 [I-266]
5 | < 100 | CCS(=O)(=O)c1ccc(Nc2ncc(C(F)(F)F)c(-c3cnn(C)c3)n2)c(C)c1 [I-27, N-(4-ethylsulfonyl-2-methyl-phenyl)-4-(1-methylpyrazol-4-yl)-5-(trifluoromethyl) pyrimidin-2-amine]
6 | 100 to 500 | CCS(=O)(=O)c1ccc(Nc2nccc(-c3cnc(C)n3C(C)C)n2)c(C)c1 [I-29, N-(4-ethylsulfonyl-2-methyl-phenyl)-4-(3-isopropyl-2-methyl-imidazol-4-yl) pyrimidin-2-amine]
7 | 500 to 1000 | CCS(=O)(=O)c1ccc(Nc2ncc(C(F)(F)F)c(-c3cnn(C)c3C(F)F)n2)c(C)c1 [I-45]
8 | 100 to 500 | CNS(=O)(=O)c1ccc(Nc2ncc(C(F)(F)F)c(-c3cnc(C)n3C(C)C)n2)c(C)c1 [I-265]
9 | > 1000 | CNS(=O)(=O)c1ccc(Nc2ncc(C(F)(F)F)c(C3CCCCC3)n2)c(C)c1 [I-68]
10 | 100 to 500 | CNS(=O)(=O)c1ccc(Nc2ncc(C(F)(F)F)c(-c3cnn(C)c3C(F)F)n2)c(C)c1 [I-267]
11 | 500 to 1000 | CCS(=O)(=O)c1ccc(Nc2ncc3cc(C(F)(F)F)c(=O)n(C4CCCC4)c3n2)c(C)c1 [I-53]
12 | 100 to 500 | CCS(=N)(=O)c1ccc(Nc2ncc3cc(Cl)c(=O)n(C(C)C)c3n2)c(C)c1 (stereo not drawn) [I-208]
13 | > 1000 | CCS(=O)(=O)c1ccc(Nc2ncc3cc(C(F)F)c(=O)n(C(C)C)c3n2)c(C)c1 [I-31]
14 | < 100 | CCS(=O)(=O)c1ccc(Nc2ncc(C(F)(F)F)c(-c3cn(C(C)C)c(C)n3)n2)c(C)c1 [I-44]
15 | < 100 | CNS(=O)(=O)c1ccc(Nc2ncc3ccc(=O)n(C4CCCC4)c3n2)c(C)c1 [I-252]
16 | < 100 | CNS(=O)(=O)c1ccc(Nc2nccc(-c3cnc(C)n3C(C)C)n2)c(C)c1 [I-269]
17 | 500 to 1000 | CNS(=O)(=O)c1ccc(Nc2ncc(C(F)(F)F)c(C3CCOCC3)n2)c(C)c1 [I-271]
18 | < 100 | CNS(=O)(=O)c1ccc(Nc2ncc3cc(C(F)F)c(=O)n(C4CCCC4)c3n2)c(C)c1 [I-242]
19 | 100 to 500 | CCS(=O)(=O)c1ccc(Nc2ncc3cc(Cl)c(=O)n(C(C)C)c3n2)c(C)c1 [I-30]
20 | < 100 | CNS(=O)(=O)c1ccc(Nc2ncc3cc(Cl)c(=O)n(C(C)C)c3n2)c(C)c1 [I-247]
21 | 100 to 500 | CCS(=O)(=O)c1ccc(Nc2ncc3cc(F)c(=O)n(C4CCCC4)c3n2)c(C)c1 [I-52]
22 | > 1000 | CCS(=O)(=O)c1ccc(Nc2ncc(C(F)(F)F)c([C@H]3CC[C@@](C)(O)CC3)n2)c(C)c1 [I-40]
23 | < 100 | Cc1cc(S(N)(=O)=O)ccc1Nc1ncc(C(F)(F)F)c(-c2cnn(C)c2)n1 [I-272]

The next lines start with the molecule.

Row | Compound | IC50 [nM]
24 | CC(=O)N1CCC(Nc2ncc3cc(Cl)c(=O)n(C(C)C)c3n2)CC1 [I-235] | 500 to 1000
25 | Cn1cc(S(=O)(=O)N2CCC(Nc3ncc4c(n3)N(C3CCCC3)C(=O)C43CC3)CC2)cn1 [I-255] | < 100
26 | CNS(=O)(=O)c1ccc(Nc2nc(OC3CCCCC3)c3ncsc3n2)c(C)c1 [I-234] | > 1000
27 | COC1CC2(CCC(Nc3ncc4cc(Cl)c(=O)n(C5CCCC5)c4n3)CC2)C1 (stereo not drawn) [I-239] | > 1000
28 | CC(C)(O)c1cccc2cnc(NC3CCN(S(C)(=O)=O)CC3)cc12 [I-212] | 100 to 500
29 | CNS(=O)(=O)c1cc(C)c(Nc2ncc3cc(Cl)c(=O)n(C(C)C)c3n2)cn1 [I-213] | 100 to 500
30 | Cn1cc(S(=O)(=O)N2CCC(Nc3ncc4c(n3)N([C@@H]3CCC[C@@]3(C)O)C(=O)C43CC3)CC2)cn1 [I-254] | < 100
31 | Cc1cc(CS(C)(=N)=O)ccc1Nc1ncc2cc(Cl)c(=O)n(C(C)C)c2n1 (stereo not drawn) [I-207] | 100 to 500
32 | CNS(=O)(=O)c1ccc(Nc2ncc3cc(Cl)c(=O)n(C(C)C)c3n2)c(C)n1 [I-218] | 100 to 500
33 | CC(=O)N(c1ccc(-c2cnn(C)c2)cc1)[C@H]1CC[C@H](Nc2ncc3cc(Cl)c(=O)n(C(C)C)c3n2)CC1 [I-228] | 100 to 500
34 | Cc1cc(CS(C)(=O)=O)ccc1Nc1ncc2cc(Cl)c(=O)n(C(C)C)c2n1 [I-197] | > 1000
35 | CNS(=O)(=O)c1ccc(Nc2ncc3cc(C(F)F)c(=O)n([C@@H]4CCC[C@@]4(C)O)c3n2)c(C)c1 [I-256] | < 100
36 | CCS(=O)(=O)c1ccc(Nc2ncc3c(n2)N(C2CCCC2)C(=O)C32CC2)c(C)c1 [I-35] | < 100
37 | Cc1cc(S(=O)(=O)C2CCC3(CC2)CN(C)C3)ccc1Nc1ncc2cc(Cl)c(=O)n(C3CCCC3)c2n1 [I-41] | < 100
38 | CC(C)c1cccc2cnc(NC3CCN(S(C)(=O)=O)CC3)nc12 [I-215] | < 100
39 | COCc1cc(-c2ccc(Nc3ncc4cc(Cl)c(=O)n(C(C)C)c4n3)c(C)c2)n(C)n1 [I-210] | > 1000
